The subject of the test is TRPV ion channels. Kind of test: TRPV ion channel activity: 2-APB-induced intracellular calcium change in f11 nociceptive sensory cells (Fluo-4-AM). In kind it is cell-based, white rats. To be noted: f11 cell lines pre-treated with the compound for 24 hours, then 2-APB. The protocol:
To investigate the activity of the compound of Formula 1 isolated in Example 1, pain relief effects were evaluated. The pain relief was confirmed by identifying intracellular calcium levels and signaling pathways.
After f11 nociceptive sensory cell lines in white rats incubated with the compound of Formula 1 to 50% confluence for 24 hours were pretreated, TRPV ion channel activities were measured. The f11 cell lines were treated with 2-APB (2-aminoethoxydiphenyl borate) as a pre-activator for TRPV ion channels, and intracellular calcium changes, which are triggered in response to the 2-APB treatment, were evaluated using a Fluo-4-AM fluorescent dye on a real time basis.

Results on one molecule are retold here after patent publication US20190125704A1, “PAIN RELIEF COMPOSITION” (priority 2016, published 2019).

Molecules are shown by their SMILES. Where “and” joins values, the source holds several entries; their conditions need not be identical. Equal entries are not always repeated.

For the molecule `CC(C)c1ccc2c(c1)C=C[C@H]1[C@](C)(C(=O)O)CCC[C@]21C` [Formula 1, abieta-6,8,11,13-tetraaen-18-oic acid], for the setting “Fluo-4-AM fluorescent dye, real time”, the “increase in the intracellular calcium level induced by 2-APB” value is “strongly inhibited”. Further, under “Fluo-4-AM, compared with untreated control group”, the “intracellular calcium level after 2-APB treatment (tabulated data of FIG. 8, individual values)” value is 1.1293 and 1.1714 and 1.1656 and 1.434 and 1.8663 and 1.3893 and 1.1031 and 1.2503 and 1.4131 and 1.3008 and 1.2251 and 1.1536 and 1.125 and 1.1572.
